2 compounds from patent US20030032807A1, “Method for the production of 1-amino -3-aryl -uracils” (priority 2000, published 2003) can be followed below.

Structures are written as SMILES.

This series is described as follows: logP determination by HPLC on reversed-phase column (C 18), EEC Directive 79/831 Annex V.A8. The series is classed as physicochemical. To be noted: reversed-phase HPLC column (C 18); at pH=2.3; acid range eluents 0.1% aqueous phosphoric acid/acetonitrile; 43° C. The procedure:
The determination of the logP value given in Example 1 was carried out according to EEC Directive 79/831 Annex V.A8 by HPLC (High Performance Liquid Chromatography) using a reversed-phase column (C 18). Temperature: 43° C. (a) Eluents for determination in the acid range: 0.1% aqueous phosphoric acid, acetonitrile; linear gradient from 10% acetonitrile to 90% acetonitrile—corresponding measurements are marked in Table 1 by ^a). (b) Eluents for determination in the neutral range: […] aqueous phosphate buffer solution, acetonitrile; linear gradient of 10% acetonitrile to 90% acetonitrile—corresponding measurements are marked in Table 1 by ^b). Calibration was carried out using unbranched alkan-2-ones (having from 3 to 16 carbon atoms), whose logP values are known (determination of logP values using the retention times by linear interpolation between two consecutive alkanones).

Broadly, the chromatographic logP is lipophilicity estimated from chromatographic retention. For the compound `Nn1c(C(F)(F)F)cc(=O)n(-c2ccc(Br)cc2F)c1=O` [Example 1, 1-amino-3-(4-bromo-2-fluorophenyl)-6-trifluoromethyl-2,4-(1H,3H)-pyrimidinedione], the chromatographic logP came out at 2.41.
The value for `CCS(=O)(=O)N(C(=O)c1ccccc1)c1cc(-n2c(=O)cc(C(F)(F)F)n(N)c2=O)c(F)cc1C#N` [Example 8, N-benzoyl-N-[2-cyano-5-(3-amino-2,6-dioxo-4-trifluoromethyl-3,6-dihydro-1-(2H)-pyrimidinyl)-4-fluorophenyl]ethanesulphonamide] was 2.82.
